Source: patent publication US10463664B2, “Inhibitors of HSV nucleotidyl transferases and uses therefor” (Saint Louis University, priority 2013, dated 2019)

Tests used:
[1] = Single dose pharmacokinetic study after peroral ciclopirox olamine; assay type: in vivo, BALB/c mice; details: 100 mg/kg oral gavage
Description: Single dose pharmacokinetic study after peroral treatment with ciclopirox Olamine. Six week old BALB/c mice were treated with 100 mg/kg ciclopirox olamine by oral gavage. This is well below the oral toxicity level in mice of 1740 mg/kg (Spectrum Chemicals MSDS). At 15 min, 30 min, 1 h, 3 h and 5 h post-treatment, blood was collected from pairs of mice and the serum separated. Mice were then euthanized and trigeminal ganglia (TG), brainstems and corneas were dissected and frozen until tissue extraction was performed and the extracts analyzed by mass spectroscopy. Standardization to ciclopirox olamine was achieved using compound spiked into a matrix of relevant tissue homogenate from untreated mice.
Ciclopirox olamine tissue concentrations (μM) after oral gavage. Ciclopirox olamine has previously been used to treat mice by oral gavage (25 to 40 mg/kg) for up to 60 days, but, assessment of penetration into the cornea and nervous system after oral gavage needed to be evaluated as well as tissue concentration over time to estimate appropriate dosing. In a single dose pharmacokinetic study, mice were treated with 100 mg/kg ciclopirox olamine by oral gavage. Pairs of mice were euthanized at various times post-treatment. Ciclopirox olamine concentrations in plasma, corneas, trigeminal ganglia and brainstems were determined by mass spectroscopy (FIG. 10). […] Ciclopirox olamine concentrations in cornea and nervous system tissues were only ˜5-fold lower than that in the plasma and remained above the estimated EC90 until 5 hours post-treatment.

HSV-1 [2] = experiment: Topical treatment of mice infected with HSV-1 on the cornea; assay type: in vivo; details: summary statement
Description: Compounds were administered at 1 μg/eye in 10% DMSO. Two mice were treated with 10% DMSO as a negative control. The corneal surface was swabbed once per day on days 1, 2, 4 and 5 post-infection and titer of virus shed from the epithelium was determined by standard plaque assay. On the fifth day post-infection mice were euthanized and the trigeminal ganglia (TG) and brainstems were dissected. The tissues were disrupted and virus in them quantified by plaque assay. […] Weight of individual mice was recorded daily. […] Saline was a negative control. On the fifth day post-infection mice were euthanized and the trigeminal ganglia (TG) and brainstems were dissected. The tissues were disrupted and virus in them quantified by plaque assay.
Body weight was monitored daily post-infection as a sensitive indicator of overall health (FIG. 12).
Infected mice treated with saline served as a negative control.

[3] = mouse, in vivo; cited from earlier work
HSV-1 [4] = experiment: Anti-HSV-1 replication assay in Vero cells, titer by plaque assay; assay type: cell-based, herpes simplex virus 1
Procedure, shortened: (§1)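 Well lysates titered by plaque assay on Vero cells versus DMSO controls; EC50 by non-linear fit from serial dilutions starting at 50 μM.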

HSV-2 [5] = experiment: Anti-HSV-2 replication assay in Vero cells, titer by plaque assay; assay type: cell-based, herpes simplex virus 2
Procedure, shortened: as §1

HBV RNaseH = biological target: T1, HBV RNaseH (Hepatitis B virus genotype A2 subtype adw2, UniProt P03159); experiment: Biochemical inhibition of HBV RNaseH (oligonucleotide-directed RNA cleavage assay); details: compounds at 60, 20 or 10 μM
T1 construct: One of the inventors recently produced active recombinant HBV RNase H; hexahistidine; made in house; host or cells: E. coli
T1 sequence (P03159 693-845): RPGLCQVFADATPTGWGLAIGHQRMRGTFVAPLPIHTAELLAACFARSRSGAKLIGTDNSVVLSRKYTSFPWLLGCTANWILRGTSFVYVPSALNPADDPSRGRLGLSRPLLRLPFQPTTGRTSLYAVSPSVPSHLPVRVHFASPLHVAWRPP
Procedure, shortened: (§2)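 A DNA oligonucleotide was annealed to internally ^32P-labeled RNA, and the heteroduplex was incubated with enzyme alongside compounds at 60, 20 or 10 μM. Cleavage products were resolved by electrophoresis and detected by autoradiography, then quantified against DMSO vehicle reactions.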

human RNaseH1 = biological target: T2, human RNaseH1 (Homo sapiens, UniProt O60930); experiment: Biochemical inhibition of human RNaseH1 (oligonucleotide-directed RNA cleavage assay); details: compounds at 60, 20 or 10 μM
T2 construct: hexahistidine; made in house; host or cells: E. coli
T2 sequence (O60930 1-286): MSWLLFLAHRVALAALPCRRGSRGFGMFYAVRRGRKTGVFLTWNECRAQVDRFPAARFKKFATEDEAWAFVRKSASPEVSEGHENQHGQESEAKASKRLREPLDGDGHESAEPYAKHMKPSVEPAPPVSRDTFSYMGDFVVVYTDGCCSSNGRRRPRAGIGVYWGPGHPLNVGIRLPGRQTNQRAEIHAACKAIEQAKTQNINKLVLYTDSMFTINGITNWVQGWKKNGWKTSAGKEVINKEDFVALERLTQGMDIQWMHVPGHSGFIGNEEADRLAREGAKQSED
Procedure, shortened: as §2

HSV-1 [6] = experiment: HSV-1 replication inhibition in primary human foreskin fibroblasts; assay type: cell-based, herpes simplex virus 1; details: HFF cells, relative to DMSO-treated control
Description: (§3) Anti-HSV-1 and -HSV-2 Replication Assay. Compounds to be screened were diluted in PBS supplemented to contain 2% newborn calf serum and 1% glutamine, and added in 100 μL, volume to confluent cell monolayers in 24-well cluster plates. Immediately thereafter HSV-1 and HSV-2, diluted in the supplemented PBS medium, were added to the wells in 50 μl volume such that the final concentration of compound was 50 μM and 5 μM and the multiplicity of infection was 0.1. The plates were incubated at 37° C. for 1 hour and then virus-containing inoculum was removed and the wells were washed once in PBS. Compounds, diluted to 50 μM and 5 μM in DMEM supplemented to contain 2% newborn calf serum and 1% each penicillin/streptomycin, were added at 0.5 mL/well. Plates were incubated at 37° C. an additional 23 hr, and then the plates were visually inspected through a phase contrast microscope for cytopathic effect, and for toxic effect. […] The entire contents of each well were collected by scraping. Samples were frozen at −80° C., and then subsequently thawed, sonicated, and infectious virus titer was determined by standard plaque assay on Vero cell monolayers. Because the compounds were dissolved at 10 mM in 100% DMSO, equivalent dilutions of DMSO were added to additional wells as a control for effects of the diluent. Each experiment was repeated once. EC50 values were determined as above except that serial dilutions of the compound to be tested were prepared starting at 50 μM. The inhibitory values were calculated by non-linear curve-fitting in GraphPad Prism.
(§4) Inhibition of viral replication was next assessed in human foreskin fibroblasts (HFF) to determine whether NTS inhibitors could block HSV-1 and HSV-2 replication in a physiologically relevant, primary human cell type. […] Viral yields 24 hours post-infection were measured by plaque assay.

HSV-2 [7] = experiment: HSV-2 replication inhibition in primary human foreskin fibroblasts; assay type: cell-based, herpes simplex virus 2; details: HFF cells, relative to DMSO-treated control
Description: as §3, §4

in vitro = details: human
Description: Toxicity Assays. Qualitative assessments of cytotoxicity were done visually by inspecting the cells in the primary screening assays. For the quantitative assays, cells were plated in 96-well plates at 1.0×10^4 per well. The next day the compounds were added at 0.78 to 100 μM in a final concentration of 1% (v/v) DMSO, and the cells were incubated for 24 hours under conditions identical to those employed for the viral replication inhibition assays. Mitochondrial toxicity was measured by incubating the cells with 0.25 mg/mL thiazolyl blue tetrazolium bromide (MTT, SigmaAldrich Chemical Co.), the cultures were incubated for 60 min, metabolites were solubilized in acidic isopropanol, and absorbance was read at 570 nm. Cellular lysis was measured by detecting release of intracellular proteases with the CytoTox-Glo assay (Promega) according to the manufacturer's instructions. Percent viability was determined for each compound concentration from the maximal absorbance or luminosity data, and then CC50 values were calculated by non-linear curve fitting using GraphPad Prism.
as §4

HCMV strain AD169 [8] = experiment: Anti-HCMV CPE inhibition assay (crystal violet) in HFFs; assay type: cell-based, human cytomegalovirus; details: Human betaherpesvirus 5, AD169, 336 h, 14 days, read-out: EC50 against HCMV, CPE inhibition assay
Description: (§5) Anti-HCMV CPE inhibition and cytotoxicity assays. HFFs were infected with HCMV strain AD169 in the presence of serial dilutions of the compounds from 0.0192 to 60 μM. Fourteen days later the monolayers were stained with crystal violet, and retained cell density was quantified using a multiplate autoreader (BioTek). Cytotoxicity was measured the same way, except that the cells were uninfected and neutral red internalization by viable cells was measured.
(§6) Antiviral efficacy against HCMV. The ability of select HSV inhibitors to inhibit replication of another major human herpesvirus pathogen, human cytomegalovirus (HCMV) (65) was tested. This was based on the inhibitors strong suppression of HSV-1 and HSV-2 and the prediction that other members of the herpesvirus family would be sensitive to NTS inhibitors due to their shared DNA replication mechanism. Compounds #41, 46, 49, 55, 56, and 59 and the FDA-approved anti-HCMV drug ganciclovir were evaluated with crystal violet CPE and neutral red toxicity assays in HFFs. HFFs were infected with HCMV in the presence of serial dilutions of the compounds that were most inhibitory for HSVs. After 14 days the monolayers were stained and cell density was determined by OD reading. Compound cytotoxicity for uninfected cells was determined in the same manner except that neutral red uptake by viable cells was measured. […] The TI values for the four NTS inhibitors of HCMV ranged from 4 for compound #41 to 38 for #56. Therefore, NTS inhibitors can suppress HCMV replication in addition to inhibiting the HSVs.

[9] = Neutral red cytotoxicity assay in uninfected HFFs (14 day, with CPE assay); assay type: cell-based, human; details: human, uninfected human foreskin fibroblasts (HFFs)
Description: as §5, §6

HCMV strain AD169 [10] = experiment: HCMV plaque reduction assay in HFFs; assay type: cell-based, human cytomegalovirus; details: Human betaherpesvirus 5, AD169, 240 h, 10 days, read-out: EC50 against HCMV, plaque reduction assay
Description: (§7) HCMV plaque reduction EC50 and toxicity assays. Low passage primary HFFs were infected with HCMV strain AD169 in the presence of serial dilutions of the compounds from 0.032 to 100 μM. Ten days later the monolayers were stained with 1% neutral red solution in PBS. After rinsing, plaques were counted using a stereomicroscope and the EC50 was interpolated from the data. Cytotoxicity was measured using a plate-based assay in which compounds were added to HFFs at 0.032 to 100 μM. At the end of the incubation period, plates were stained for 1 h with a neutral red solution in PBS. The stain was then removed, the plates rinsed in PBS and dried, and dye internalized by viable cells was determined at OD550. CC50 values were interpolated from the data.
(§8) Compounds #41, 46, 49, 55, 56, and 59 and the FDA-approved, anti-HCMV drug ganciclovir were subsequently evaluated with plaque reduction and toxicity assays in HFFs. HFFs were infected with HCMV in the presence of serial dilutions of the compounds. After 10 days the cultures were stained with neutral red and plaques were counted. Compound cytotoxicity for uninfected cells was determined in the same manner except that neutral red uptake by viable cells was measured by optical density. […] The TI values for the five NTS inhibitors of HCMV ranged from 5 for compound #46 to 17 for #55 and 59. Therefore, NTS inhibitors can suppress HCMV replication in addition to inhibiting the HSVs.

[11] = Neutral red cytotoxicity assay in HFFs (10 day, with plaque reduction assay); assay type: cell-based, human; details: human, uninfected primary human foreskin fibroblasts (HFFs), 10 day assay
Description: as §7, §8

[12] = 5 μM, moi 0.1, 24 h, relative to DMSO
[13] = 50 μM, moi 0.1, 24 h, relative to DMSO

Cc1cc(C2CCCCC2)n(O)c(=O)c1 [Compound 41-E, Ciclopirox ethanolamine]
Concentrations in cornea and nervous system tissues, fold lower than plasma [1]: ~5 fold
Plasma concentration at time of uptake [1]: ~30 µM
Free plasma concentration after 5 hours, fold above the estimated EC90 against HSV-1 ([1]; 5 hours): 10 fold
Overall health of mice as shown by maintenance of body weight (HSV-1 [2]): significantly improved the overall health
Oral toxicity level in mice [3]: 1740 mg/kg

O=c1cccccc1O [Compound 53, Tropolone]
Anti-HSV-1 Log10 suppression 5 μM (HSV-1 [4]; [12]): 0.25 log10
Anti-HSV-1 Log10 suppression 50 μM (HSV-1 [4]; [13]): 1.90 log10
Inhibition of HSV-1 replication (in words) (HSV-1 [4]; primary screening): negligible inhibitors
Anti-HSV-2 Log10 suppression 5 μM (HSV-2 [5]; [12]): 0.45 log10
Anti-HSV-2 Log10 suppression 50 μM (HSV-2 [5]; [13]): 1.45 log10
Inhibition of HSV-2 replication (in words) (HSV-2 [5]; primary screening): negligible inhibitors
Anti-HBV RNaseH (HBV RNaseH): − (no inhibition at 60 μM)
Anti-Human RNaseH1 (human RNaseH1): − (no inhibition at 60 μM)
Replication inhibition HSV-1 5 μM (HSV-1 [6]; 5 μM): −0.03 log10
Replication inhibition HSV-1 50 μM (HSV-1 [6]; 50 μM): 2.13 log10
Replication inhibition HSV-2 5 μM (HSV-2 [7]; 5 μM): 0.29 log10
Replication inhibition HSV-2 50 μM (HSV-2 [7]; 50 μM): 1.22 log10
CC50 at 24 h (in vitro): > 100 µM

Nc1nc(O)c2ncn(COC(CO)CO)c2n1 [Ganciclovir, reference compound]
EC50 (HCMV strain AD169 [8]): 0.33 µM
CC50 at 14 days [9]: > 300 µM
EC50 (HCMV strain AD169 [10]): 3.2 µM
CC50 at 10 days [11]: > 100 µM
